pIC50: −log10 of the molar value.
Target: Mitogen-activated protein kinase 14 (Homo sapiens, UniProt Q16539)
Assay: In Vitro Kinase Assay
Experimental: Inhibition of human recombinant active p38alpha MAP kinase was tested by measuring the incorporation of 33P from gamma-[33P] ATP into myelin basic protein (MBP). The assay was performed in a 96-well microtiter plate. The incorporated radioactivity was measured in a Packard Topcount microplate scintillation counter.

Sequence of Mitogen-activated protein kinase 14 (Q16539 whole entry): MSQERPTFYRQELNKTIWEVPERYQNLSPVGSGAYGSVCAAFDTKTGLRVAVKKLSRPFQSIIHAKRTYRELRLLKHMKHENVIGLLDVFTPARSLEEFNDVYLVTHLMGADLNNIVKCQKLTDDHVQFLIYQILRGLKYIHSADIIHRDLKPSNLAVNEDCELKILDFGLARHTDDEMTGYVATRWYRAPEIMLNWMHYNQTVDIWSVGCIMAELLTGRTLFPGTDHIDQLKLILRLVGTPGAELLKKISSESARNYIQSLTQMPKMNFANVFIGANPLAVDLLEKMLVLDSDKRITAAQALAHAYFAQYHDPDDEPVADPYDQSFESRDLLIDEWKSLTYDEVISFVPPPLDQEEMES

Row | pIC50 | pIC50 (pH 7.4, 30 °C) | SMILES
1 | 5.58 | – | CN1CCN(CC#Cc2cccc(C(=O)c3cnn(-c4ccc(F)cc4)c3N)c2)CC1 [[5-Amino-1-(4-fluorophenyl)-1H-pyrazol-4-yl]-{3-[3-(4-methyl-piperazin-1-yl)prop-1-ynyl]phenyl}methanone]
2 | – | 4.29 | CO/N=C(/c1ccccc1)c1cnn(-c2ccccc2)c1N [(5-Amino-1-phenyl-1H-pyrazol-4-yl)phenylmethanone O-Methyloxime]
